Ends that are not written are not given here.
Assays:
[1] = test system: U937 cells treated with IFNγ; experiment: FACS binding to activated and non-activated U937 cells; type: cell-based; details: 10 μM BDB or 1 μM biotinylated human IgG1; 4° C., 1 h
Description: (§1) In order to determine the binding affinity of BDB to activated phagocytic cells, activated and non-activated U937 cells or murine primary macrophages were resuspended in the presence of BDB, biotinylated human IgG1, or PBS. The cells were then stained using either AF488-streptavidin conjugate, APC-Cy7 dead/live stain, or dead/live stain only and measured using fluorescence activated cell sorting (FACS).
(§2) Specifically, U937 cells were cultured in RPMI 1640+2 mM Glutamine+10% v/v foetal bovine serum (FCS) for 48 h in the absence or presence of […] human IFNγ (Thermo Fisher Scientific). Murine primary macrophages were cultured for 48 h in the absence or presence of 100 μg/ml LPS (Sigma). Aliquots of 5×10^5 cells were centrifuged 3 min at 300 g and resuspended either in 50 μl of 10 μM BDB, 1 μM biotinylated human IgG1 or PBS. Samples were incubated at 4° C. for 1 h and then centrifuged for 3 min at 100 g. Cells were resuspended in 50 μl of either AF488-streptavidin conjugate (Thermo Fisher Scientific, 1:500 in PBS) with APC-Cy7 dead/live stain (Thermo Fisher Scientific, 1:2000 in PBS) or dead/live stain only. Samples were incubated at 4° C. for 30 min and then centrifuged for 3 min at 100 g. Samples were washed with 200 μl cold PBS and resuspended in 250 μl PBS for analysis using a FACS Canto II, with 10^4 events recorded per condition. […]

[2] = test system: IFNγ-activated U937 cells; experiment: colocalization of BDB and AF647-labelled hLys amyloid to the surface of U937 cells (FACS); type: cell-based, human; details: 1 μM BDB or cp33
Description: IFNγ-activated U937 cells, a human macrophage cell line, were incubated with either BDB, cp33 peptide, or vehicle in the presence or absence of Alexa Fluor™ 647-labelled hLys amyloid in order to determine if the IFNγ-activated U937 cells have increased binding of amyloid in the presence of BDB or cp33 peptide as compared to vehicle.
Specifically, hLys were labelled with the fluorescent dye alexa 647, using the Alexa Fluor™ 647 Microscale Protein Labelling Kit (Thermo Fisher Scientific) according to the manufacturer's instructions with the following modifications: after protein labelling, the solution was made up to 500 μl with PBS and the sample centrifuged at 20800 for 40 min. The supernatant was discarded and the pellet washed with PBS, resuspended in 500 μl PBS and the centrifugation repeated. The final pellet was resuspended in 100 μl of PBS.
U937 cells were cultured in RPMI 1640+2 mM Glutamine+10% v/v FCS for 48 h in the presence of […] human IFNγ. Aliquots of 5×10^5 cells were centrifuged 3 min at 300 g and resuspended in 50 μl of either 1 μM BDB or cp33 and then incubated with either 1 or 0.1 μM AF647-hLyz. The staining and FACS analysis were performed as before, this time reporting the percentage of live cells positive for both AF488-streptavidin and AF647 h-Lyz.

[3] = test system: amyloid proteins (hen lysozyme (hLys), human full-length alpha synuclein, human tau P301S); experiment: fluorometric assay of binding to amyloid proteins; details: 30 μM reporter solution in PBS; excitation 450 nm, emission 460-680 nm; compared to amyloid-free control
Description: The binding of BDB to various amyloid proteins was evaluated in vitro using a fluorometric assay.
The amyloid proteins (hen lysozyme (hLys), human full-length alpha synuclein, and human tau P301S) were individually prepared for use in the fluorometric assay. hLys (Sigma) was dissolved in 136.8 mM NaCl, 2.68 mM KCl, 0.01% w/v NaN3, pH 2 at a concentration of 1.45 mg/ml and incubated at 55° C. for 24 h in an orbital shaker at 150 rpm. Human full length alpha synuclein (Alexotech) was dissolved in 150 mM NaCl, 1% v/v triton-x100 in PBS at a concentration of 2.2 mg/ml and incubated at 37° C. for 72 h in an orbital shaker at 250 rpm. Human tau P301S was incubated at 8 mg/ml with 4 mg/ml heparin (Sigma) in PBS, 30 mM 3-(N-morpholino) propanesulfonic acid (MOPS) (pH 7.2) at 37° C. for 72 h. […]
The binding of the BDB to amyloid was detected using a fluorometric assay. The amyloid binding was detected with the use of one of three fluorescent reporters solutions (30 μM BDB, cp33 peptide (Bonetto S et al. FASEB J. 2009; 23(2):575-85) or Thioflavin T (ThT) (Sigma) solution, in PBS). […] An Envision plate reader was set to excite at 450 nm and measure emission within the range 460-680 nm. The corresponding fluorescence signals of the reporter solutions were subtracted from the experimental data.

[4] = test system: murine primary macrophages treated with LPS; experiment: FACS binding to activated and non-activated murine primary macrophages; type: cell-based; details: 10 μM BDB or 1 μM biotinylated human IgG1; 4° C., 1 h
Description: as §1, §2

[5] = test system: macrophage-differentiated U937 cells; experiment: phagocytosis of pHrodo-red labelled hLys amyloid (IncuCyte); type: cell-based, human
Description: Macrophage-differentiated U937 cells were co-incubated with pHrodo-red labelled amyloid, BDB, cp33 peptide, or control in order to determine the amount of amyloid phagocytosed under various conditions. hLys amyloid fibrils were generated as described above and were labelled with the pHrodo Red Microscale Labeling Kit (ThermoFisher) according to the manufacturers instruction except that unincorporated label was removed from the labelled amyloid by three rounds of centrifuging at 20,000×g in a microfuge, discarding the supernatant and resuspending the amyloid pellet in PBS. U937 cells were differentiated into macrophages in the presence of […] M-CSF (Peprotech), 1 μg/ml PMA (Sigma) and […] IFNγ (Thermo Fisher Scientific) for 4 days. 8×10^5 cells/condition were centrifuged for 3 min at 300 g and resuspended in 50 μl of 1 μM BDB, 1 μM cp33, 1 μM BDB with 0.1 μM labelled amyloid, 1 μM cp33 with 0.1 μM labelled amyloid, 0.1 μM labelled amyloid or a 1:100 PBS dilution of a pHrodo Red-labelled E. coli suspension (Thermo Fisher Scientific). […]
The plates were placed in an IncuCyte instrument and settings programmed to scan both in phase contrast and the red fluorescence channel hourly for 48 h. […] A metric of Total Red Object Area (μm^2/well) was used to quantify the appearance of pHrodo red fluorescence within cells. […]

[6] = test system: Fc receptor on IFNγ-activated U937 cells; experiment: competition of BDB and cp33 peptide binding with unlabelled human IgG1 (FACS); type: cell-based; details: 1 μM BDB or cp33; human IgG1 above approximately 10 nM
[7] = test system: IFNγ-activated U937 cells; experiment: titrating BDB and IgG1 binding to IFNg stimulated U937 cells (FACS); type: cell-based, human; details: flow cytometry
Description: as §2, with “condition. Using FlowJo software, cells were visualised using forward and side scatter plots (FSC vs. SSC) and live cells were gated according to their live/dead staining. The percentage of live cells positive for AF488 signal was identified for each condition and plotted. The experiment was repeated three times and results present as the mean (+/−SD).” for “condition.”
The binding of BDB and IgG1 to IFNγ stimulated U937 cells was determined using the following methods. […]

## BDB: conjugate of Compound 1 (carboxylic acid derivative of thioflavin T) added as terminal residue to biotinylated cyclic cp33 peptide derivative (SEQ ID NO:3) (AQVNSCLLLPNLLGCGDDK; not fully specified (bridges); cysteine pairing not given here; also: biotinylated, thioflavin T derivative (Compound 1) added as terminal residue, end not given here)
[1]
  binding to U937 cells treated with IFNγ versus non-activated (percentage of live cells positive for AF488 signal): enhanced binding
[2]
  cell binding with or without amyloid: show cell binding irrespective of whether amyloid is present
[2]; 1 or 0.1 μM AF647-hLyz
  IFNγ-activated U937 cells binding amyloid (live cells positive for both AF488-streptavidin and AF647 h-Lyz): Up to 14.4%
[3]
  fluorescence in the presence of amyloid proteins: increased fluorescence
[4]
  binding to murine primary macrophages treated with LPS versus non-activated (percentage of live cells positive for AF488 signal): enhanced binding
[5]; 1 μM BDB or 1 μM cp33, no amyloid
  pHrodo red signal in the absence of amyloid: did not generate a signal
[5]; 1 μM BDB with 0.1 μM labelled amyloid, compared to cp33-amyloid or amyloid alone, hourly for 48 h
  phagocytosis of amyloid (pHrodo red signal, Total Red Object Area): enhances the phagocytosis of amyloid
[6]
  displacement from binding to IFNγ-activated U937 cells by human IgG1: displaced
[7]; BDB 0.01-5 μM, biotinylated IgG1 0.01-1 μM
  IFNg-activated U937 cells bound: ≤ 80%
[7]; read-out: half-maximal binding to IFNγ-activated U937 cells
  EC50: ~200 nM

## Cc1ccc2c(c1)sc(-c1ccc(N(C)C)cc1)[n+]2C.[Cl-] [Tht, Thioflavin T, reference compound]
[3]
  fluorescence in the presence of amyloid proteins: increased fluorescence
